What was measured:
Assay type in all cases: functional
Conditions in all cases: read-out: GI
[1] = tested on: SF-268; assay: Growth inhibition of human SF-268 cells at 10 uM incubated for 48 hrs by sulforhodamine B assay relative to control
[2] = tested on: SNB-19; assay: Growth inhibition of human SNB-19 cells at 10 uM incubated for 48 hrs by sulforhodamine B assay relative to control
[3] = tested on: HOP-92; assay: Growth inhibition of human HOP-92 cells at 10 uM incubated for 48 hrs by sulforhodamine B assay relative to control
[4] = tested on: TK-10; assay: Growth inhibition of human TK-10 cells at 10 uM incubated for 48 hrs by sulforhodamine B assay relative to control
[5] = tested on: HCT-116; assay: Growth inhibition of human HCT-116 cells at 10 uM incubated for 48 hrs by sulforhodamine B assay relative to control
[6] = tested on: Hs-578T; assay: Growth inhibition of human Hs-578T cells at 10 uM incubated for 48 hrs by sulforhodamine B assay relative to control
[7] = tested on: UACC-62; assay: Growth inhibition of human UACC-62 cells at 10 uM incubated for 48 hrs by sulforhodamine B assay relative to control
[8] = tested on: RXF 393; assay: Growth inhibition of human RXF 393 cells at 10 uM incubated for 48 hrs by sulforhodamine B assay relative to control
[9] = tested on: MDA-MB-435; assay: Growth inhibition of human MDA-MB-435 cells at 10 uM incubated for 48 hrs by sulforhodamine B assay relative to control
[10] = tested on: DU-145; assay: Growth inhibition of human DU-145 cells at 10 uM incubated for 48 hrs by sulforhodamine B assay relative to control
[11] = tested on: MDA-MB-231; assay: Growth inhibition of human MDA-MB-231 cells at 10 uM incubated for 48 hrs by sulforhodamine B assay relative to control
[12] = tested on: HT-29; assay: Growth inhibition of human HT-29 cells at 10 uM incubated for 48 hrs by sulforhodamine B assay relative to control
[13] = tested on: NCI-H23; assay: Growth inhibition of human NCI-H23 cells at 10 uM incubated for 48 hrs by sulforhodamine B assay relative to control
[14] = tested on: SK-MEL-5; assay: Growth inhibition of human SK-MEL-5 cells at 10 uM incubated for 48 hrs by sulforhodamine B assay relative to control
[15] = tested on: OVCAR-3; assay: Growth inhibition of human OVCAR-3 cells at 10 uM incubated for 48 hrs by sulforhodamine B assay relative to control
[16] = tested on: SF-539; assay: Growth inhibition of human SF-539 cells at 10 uM incubated for 48 hrs by sulforhodamine B assay relative to control
[17] = tested on: HCT-15; assay: Growth inhibition of human HCT-15 cells at 10 uM incubated for 48 hrs by sulforhodamine B assay relative to control
[18] = tested on: OVCAR-4; assay: Growth inhibition of human OVCAR-4 cells at 10 uM incubated for 48 hrs by sulforhodamine B assay relative to control
[19] = tested on: IGROV-1; assay: Growth inhibition of human IGROV-1 cells at 10 uM incubated for 48 hrs by sulforhodamine B assay relative to control
[20] = tested on: UO-31; assay: Growth inhibition of human UO-31 cells at 10 uM incubated for 48 hrs by sulforhodamine B assay relative to control
[21] = tested on: MOLT-4; assay: Growth inhibition of human MOLT-4 cells at 10 uM incubated for 48 hrs by sulforhodamine B assay relative to control
[22] = tested on: HCC 2998; assay: Growth inhibition of human HCC 2998 cells at 10 uM incubated for 48 hrs by sulforhodamine B assay relative to control
[23] = tested on: NCI/ADR-RES; assay: Growth inhibition of human NCI/ADR-RES cells at 10 uM incubated for 48 hrs by sulforhodamine B assay relative to control
[24] = tested on: MDA-MB-468; assay: Growth inhibition of human MDA-MB-468 cells at 10 uM incubated for 48 hrs by sulforhodamine B assay relative to control
[25] = tested on: M14; assay: Growth inhibition of human M14 cells at 10 uM incubated for 48 hrs by sulforhodamine B assay relative to control
[26] = tested on: NCI-H226; assay: Growth inhibition of human NCI-H226 cells at 10 uM incubated for 48 hrs by sulforhodamine B assay relative to control
[27] = tested on: CCRF-CEM; assay: Growth inhibition of human CCRF-CEM cells at 10 uM incubated for 48 hrs by sulforhodamine B assay relative to control
[28] = tested on: K562; assay: Growth inhibition of human K562 cells at 10 uM incubated for 48 hrs by sulforhodamine B assay relative to control
[29] = tested on: Malme-3M; assay: Growth inhibition of human Malme-3M cells at 10 uM incubated for 48 hrs by sulforhodamine B assay relative to control
[30] = tested on: LOX IMVI; assay: Growth inhibition of human LOX IMVI cells at 10 uM incubated for 48 hrs by sulforhodamine B assay relative to control
[31] = tested on: SN12C; assay: Growth inhibition of human SN12C cells at 10 uM incubated for 48 hrs by sulforhodamine B assay relative to control
[32] = tested on: SK-MEL-28; assay: Growth inhibition of human SK-MEL-28 cells at 10 uM incubated for 48 hrs by sulforhodamine B assay relative to control
[33] = tested on: KM12; assay: Growth inhibition of human KM12 cells at 10 uM incubated for 48 hrs by sulforhodamine B assay relative to control
[34] = tested on: MCF7; assay: Growth inhibition of human MCF7 cells at 10 uM incubated for 48 hrs by sulforhodamine B assay relative to control
[35] = tested on: COLO 205; assay: Growth inhibition of human COLO 205 cells at 10 uM incubated for 48 hrs by sulforhodamine B assay relative to control
[36] = tested on: UACC-257; assay: Growth inhibition of human UACC-257 cells at 10 uM incubated for 48 hrs by sulforhodamine B assay relative to control
[37] = tested on: SNB-75; assay: Growth inhibition of human SNB-75 cells at 10 uM incubated for 48 hrs by sulforhodamine B assay relative to control
[38] = tested on: NCI-H522; assay: Growth inhibition of human NCI-H522 cells at 10 uM incubated for 48 hrs by sulforhodamine B assay relative to control
[39] = tested on: SF-295; assay: Growth inhibition of human SF-295 cells at 10 uM incubated for 48 hrs by sulforhodamine B assay relative to control
[40] = tested on: HL-60(TB); assay: Growth inhibition of human HL-60(TB) cells at 10 uM incubated for 48 hrs by sulforhodamine B assay relative to control
[41] = tested on: OVCAR-8; assay: Growth inhibition of human OVCAR-8 cells at 10 uM incubated for 48 hrs by sulforhodamine B assay relative to control
[42] = tested on: PC-3; assay: Growth inhibition of human PC-3 cells at 10 uM incubated for 48 hrs by sulforhodamine B assay relative to control
[43] = tested on: BT-549; assay: Growth inhibition of human BT-549 cells at 10 uM incubated for 48 hrs by sulforhodamine B assay relative to control
[44] = tested on: OVCAR-5; assay: Growth inhibition of human OVCAR-5 cells at 10 uM incubated for 48 hrs by sulforhodamine B assay relative to control

O=C(CN1CCOCC1)Nc1ccc(-c2nc3ccccc3s2)cc1
inhibition of growth at 10 µM [1]: -10.3% | inhibition of growth at 10 µM [2]: -0.79% | inhibition of growth at 10 µM [3]: 16.7% | inhibition of growth at 10 µM [4]: -12% | inhibition of growth at 10 µM [5]: 3.9% | inhibition of growth at 10 µM [6]: -9.77% | inhibition of growth at 10 µM [7]: -0.01% | inhibition of growth at 10 µM [8]: -11.4% | inhibition of growth at 10 µM [9]: -7.79% | inhibition of growth at 10 µM [10]: -9.1% | inhibition of growth at 10 µM [11]: 3.16% | inhibition of growth at 10 µM [12]: -3.04% | inhibition of growth at 10 µM [13]: 4.49% | inhibition of growth at 10 µM [14]: 7.27% | inhibition of growth at 10 µM [15]: 3.74% | inhibition of growth at 10 µM [16]: 10.3% | inhibition of growth at 10 µM [17]: 6.26% | inhibition of growth at 10 µM [18]: -0.52% | inhibition of growth at 10 µM [19]: -5.69% | inhibition of growth at 10 µM [20]: 4.97% | inhibition of growth at 10 µM [21]: 0.57% | inhibition of growth at 10 µM [22]: 12% | inhibition of growth at 10 µM [23]: -4.92% | inhibition of growth at 10 µM [24]: 107% | inhibition of growth at 10 µM [25]: -1.15% | inhibition of growth at 10 µM [26]: 4.99% | inhibition of growth at 10 µM [27]: 4.51% | inhibition of growth at 10 µM [28]: 0.74% | inhibition of growth at 10 µM [29]: -17% | inhibition of growth at 10 µM [30]: 0.08% | inhibition of growth at 10 µM [31]: -1.02% | inhibition of growth at 10 µM [32]: -2.13% | inhibition of growth at 10 µM [33]: -6.84% | inhibition of growth at 10 µM [34]: 51.2% | inhibition of growth at 10 µM [35]: -15.3% | inhibition of growth at 10 µM [36]: -1.38% | inhibition of growth at 10 µM [37]: 0.01% | inhibition of growth at 10 µM [38]: 5.46% | inhibition of growth at 10 µM [39]: 1.81% | inhibition of growth at 10 µM [40]: -0.57% | inhibition of growth at 10 µM [41]: -2.44% | inhibition of growth at 10 µM [42]: 6.98% | inhibition of growth at 10 µM [43]: -3.57% | inhibition of growth at 10 µM [44]: 6.58%

Reference: ChEMBL document CHEMBL4765227, “Hit to lead optimization of a series of N-[4-(1,3-benzothiazol-2-yl)phenyl]acetamides as monoacylglycerol lipase inhibitors with potential anticancer activity” (Eur J Med Chem, 2016)
